Test results published in the supplement of paper PMC13380429.

What was measured:
[1] = tested on: A549-ACE2 infected with SARS-CoV-2; assay: cell count relative to DMSO; higher = less toxic; settings: 24 h
Caco-2 [2] = assay: cell viability relative to DMSO; higher = less toxic; settings: 72 h
Calu-3 [3] = assay: as above; settings: 72 h
HepG2 [4] = assay: as above; settings: 72 h
U2OS [5] = assay: as above; settings: 72 h
Vero E6 [6] = assay: as above; settings: 72 h
[7] = tested on: A549-ACE2 infected with SARS-CoV-2; assay: SARS-CoV-2 infection rate relative to DMSO; higher = more infection; settings: 24 h
A549-ACE2 [8] = assay: drug-induced phospholipidosis relative to tamoxifen; higher = more phospholipidosis
[9] = tested on: A549-ACE2 infected with SARS-CoV-2; assay: morphology score (similarity to uninfected cells); higher = more like uninfected cells; settings: 24 h
Caco-2 [10] = assay: relative viability EC50 (midpoint between 100% and the lowest measured viability); higher = less toxic; settings: 72 h
Calu-3 [11] = assay: as above; settings: 72 h
HepG2 [12] = assay: as above; settings: 72 h
U2OS [13] = assay: as above; settings: 72 h
Vero E6 [14] = assay: as above; settings: 72 h
Caco-2 [15] = assay: drug sensitivity score (DSS) for viability; higher = more toxic; extreme values may be limits of the assay; settings: 72 h
Calu-3 [16] = assay: as above; settings: 72 h
HepG2 [17] = assay: as above; settings: 72 h
U2OS [18] = assay: as above; settings: 72 h
Vero E6 [19] = assay: as above; settings: 72 h
A549-ACE2 [20] = assay: phospholipidosis EC50; higher = less potent phospholipidosis inducer

COc1ccc(C[C@H]2NC[C@H](O)[C@H]2OC(C)=O)cc1 [anisomycin]
Settings	SARS-CoV-2 infection rate, [7] [%]	cell count, [1] [%]	cell viability, Caco-2 [2] [%]	cell viability, Calu-3 [3] [%]	cell viability, HepG2 [4] [%]	cell viability, U2OS [5] [%]	cell viability, Vero E6 [6] [%]	morphology score, [9]
1 nM	–	–	99.4	103	96.1	103	94.1	–
10 nM	–	–	87	97.9	98.5	95.6	93	–
0.1 µM	7	103	–	–	–	–	–	0.85
100 nM	–	–	58.5	67.4	39.4	53.4	34.1	–
0.3 µM	6	85	–	–	–	–	–	0.65
1 µM	18	64	–	–	–	–	–	0.48
1000 nM	–	–	24.8	35.1	11.8	5.4	9.8	–
3 µM	14	34	–	–	–	–	–	0.46
10000 nM	–	–	26.5	29.1	3.7	0.5	0.4	–

A549-ACE2 [8], 24 h
Settings	drug-induced phospholipidosis [%]
0.3 µM	4.72
0.833333 µM	-0.99

Settings	drug sensitivity score	relative viability EC50 [nM]
Caco-2 [10]	–	69.1
Caco-2 [15]	18.9	–
Calu-3 [11]	–	117
Calu-3 [16]	16.1	–
HepG2 [12]	–	72.8
HepG2 [17]	24.6	–
U2OS [13]	–	110
U2OS [18]	22.9	–
Vero E6 [14]	–	61.4
Vero E6 [19]	25.9	–

CCCCCCCCNC(C)C(O)c1ccc(SC(C)C)cc1 (centres undefined) [suloctidil]
Settings	SARS-CoV-2 infection rate [%]	cell count [%]	cell viability [%]	morphology score	phospholipidosis EC50 [nM]
A549-ACE2 [20], 24 h	–	–	–	–	7110
A549-ACE2 [20], 48 h	–	–	–	–	9120
A549-ACE2 [20], 72 h	–	–	–	–	12500
Caco-2 [2], 1 nM	–	–	105	–	–
Caco-2 [2], 10 nM	–	–	97.3	–	–
Caco-2 [2], 100 nM	–	–	99.4	–	–
Caco-2 [2], 1000 nM	–	–	101	–	–
Caco-2 [2], 10000 nM	–	–	92.6	–	–
Calu-3 [3], 1 nM	–	–	99.4	–	–
Calu-3 [3], 10 nM	–	–	97.1	–	–
Calu-3 [3], 100 nM	–	–	107	–	–
Calu-3 [3], 1000 nM	–	–	57	–	–
Calu-3 [3], 10000 nM	–	–	-0.5	–	–
HepG2 [4], 1 nM	–	–	98.7	–	–
HepG2 [4], 10 nM	–	–	109	–	–
HepG2 [4], 100 nM	–	–	98.5	–	–
HepG2 [4], 1000 nM	–	–	119	–	–
HepG2 [4], 10000 nM	–	–	102	–	–
U2OS [5], 1 nM	–	–	98.2	–	–
U2OS [5], 10 nM	–	–	95	–	–
U2OS [5], 100 nM	–	–	99.7	–	–
U2OS [5], 1000 nM	–	–	95.5	–	–
U2OS [5], 10000 nM	–	–	64.5	–	–
Vero E6 [6], 1 nM	–	–	93.8	–	–
Vero E6 [6], 10 nM	–	–	98.3	–	–
Vero E6 [6], 100 nM	–	–	93	–	–
Vero E6 [6], 1000 nM	–	–	98.3	–	–
Vero E6 [6], 10000 nM	–	–	97.4	–	–
[1], 0.3 µM	–	102	–	–	–
[1], 3 µM	–	112	–	–	–
[1], 10 µM	–	122	–	–	–
[1], 30 µM	–	65	–	–	–
[7], 0.3 µM	99	–	–	–	–
[7], 3 µM	83	–	–	–	–
[7], 10 µM	26	–	–	–	–
[7], 30 µM	25	–	–	–	–
[9], 0.3 µM	–	–	–	0.02	–
[9], 3 µM	–	–	–	0.31	–
[9], 10 µM	–	–	–	0.74	–
[9], 30 µM	–	–	–	0.13	–

drug-induced phospholipidosis [%], A549-ACE2 [8]
Settings	0.3 µM	0.833333 µM	3.33333 µM	6.66667 µM	10 µM	30 µM
24 h	2.27	1.81	10.5	42.2	60	84.3
48 h	4.05	0.83	9.1	35.5	57	95.6
72 h	3.93	-1.43	8.76	31.3	53.9	114

Settings	drug sensitivity score	relative viability EC50 [nM]
Caco-2 [10]	–	> 10000
Caco-2 [15]	0	–
Calu-3 [11]	–	1120
Calu-3 [16]	11.1	–
HepG2 [12]	–	> 10000
HepG2 [17]	0	–
U2OS [18]	2.4	–
Vero E6 [14]	–	> 10000
Vero E6 [19]	0	–

C[C@@H](Oc1cc(-n2cnc3ccc(CN4CCN(C)CC4)cc32)sc1C(N)=O)c1ccccc1C(F)(F)F
Settings	SARS-CoV-2 infection rate [%]	cell count [%]	cell viability [%]	morphology score	phospholipidosis EC50 [nM]
A549-ACE2 [20], 24 h	–	–	–	–	2900
Caco-2 [2], 1 nM	–	–	96.8	–	–
Caco-2 [2], 10 nM	–	–	95.2	–	–
Caco-2 [2], 100 nM	–	–	67.2	–	–
Caco-2 [2], 1000 nM	–	–	62.7	–	–
Caco-2 [2], 10000 nM	–	–	68.5	–	–
Calu-3 [3], 1 nM	–	–	105	–	–
Calu-3 [3], 10 nM	–	–	86.9	–	–
Calu-3 [3], 100 nM	–	–	84.5	–	–
Calu-3 [3], 1000 nM	–	–	84.8	–	–
Calu-3 [3], 10000 nM	–	–	36.1	–	–
HepG2 [4], 1 nM	–	–	98.2	–	–
HepG2 [4], 10 nM	–	–	101	–	–
HepG2 [4], 100 nM	–	–	23.9	–	–
HepG2 [4], 1000 nM	–	–	19.4	–	–
HepG2 [4], 10000 nM	–	–	8	–	–
U2OS [5], 1 nM	–	–	104	–	–
U2OS [5], 10 nM	–	–	101	–	–
U2OS [5], 100 nM	–	–	67.9	–	–
U2OS [5], 1000 nM	–	–	51.8	–	–
U2OS [5], 10000 nM	–	–	48.8	–	–
Vero E6 [6], 1 nM	–	–	101	–	–
Vero E6 [6], 10 nM	–	–	104	–	–
Vero E6 [6], 100 nM	–	–	77.2	–	–
Vero E6 [6], 1000 nM	–	–	64.6	–	–
Vero E6 [6], 10000 nM	–	–	36	–	–
[1], 0.1 µM	–	60	–	–	–
[1], 0.3 µM	–	55	–	–	–
[1], 1 µM	–	61	–	–	–
[1], 3 µM	–	62	–	–	–
[7], 0.1 µM	104	–	–	–	–
[7], 0.3 µM	101	–	–	–	–
[7], 1 µM	103	–	–	–	–
[7], 3 µM	36	–	–	–	–
[9], 0.1 µM	–	–	–	0.01	–
[9], 0.3 µM	–	–	–	0.06	–
[9], 1 µM	–	–	–	0.19	–
[9], 3 µM	–	–	–	0.65	–

A549-ACE2 [8], 24 h
Settings	drug-induced phospholipidosis [%]
0.3 µM	14.3
0.833333 µM	26.9
3.33333 µM	156
6.66667 µM	198
10 µM	260
30 µM	246

Settings	drug sensitivity score	relative viability EC50 [nM]
Caco-2 [15]	11.1	–
Calu-3 [11]	–	1730
Calu-3 [16]	5.5	–
HepG2 [12]	–	54
HepG2 [17]	25.5	–
U2OS [13]	–	80.4
U2OS [18]	13.3	–
Vero E6 [14]	–	444
Vero E6 [19]	9.3	–
